Reference: PubChem BioAssay AID330 (DTP/NCI, 2004)
“And” between values parts separate entries of the source, which are not always exact repeats. Identical values can stand only once. Toxic doses and inconclusive results are not listed.

System: P388 leukemia ip, CD2F1 mice, survival T/C
Experiment: NCI In Vivo Anticancer Drug Screen. Data for tumor model P388 Leukemia (intraperitoneal) in CD2F1 (CDF1) mice
Details: endpoint: median survival time, higher = longer survival
In short: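 Mice carrying the transplanted tumor received test compound or vehicle. Survival was recorded in each group, and the value is the treated-group measurement divided by that of the vehicle-treated control group.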

[1] = dose: 50.0 mg/kg/injection, schedule: Q01DX005 (ip), vehicle: saline with Tween-80
[2] = dose: 200.0 mg/kg/injection, schedule: Q01DX005 (ip), vehicle: saline with Tween-80
[3] = dose: 60.0 mg/kg/injection, schedule: Q01DX005 (ip), vehicle: saline with Tween-80
[4] = dose: 120.0 mg/kg/injection, schedule: Q01DX005 (ip), vehicle: saline with Tween-80
[5] = dose: 240.0 mg/kg/injection, schedule: Q01DX005 (ip), vehicle: saline with Tween-80
[6] = dose: 25.0 mg/kg/injection, schedule: Q01DX009 (ip), vehicle: Klucel (hydroxypropylcellulose) (HPC)
[7] = dose: 50.0 mg/kg/injection, schedule: Q01DX009 (ip), vehicle: Klucel (hydroxypropylcellulose) (HPC)
[8] = dose: 100.0 mg/kg/injection, schedule: Q01DX009 (ip), vehicle: Klucel (hydroxypropylcellulose) (HPC)
[9] = dose: 200.0 mg/kg/injection, schedule: Q01DX009 (ip), vehicle: Klucel (hydroxypropylcellulose) (HPC)
[10] = dose: 50.0 mg/kg/injection, schedule: Q01DX009 (ip), vehicle: saline
[11] = dose: 100.0 mg/kg/injection, schedule: Q01DX009 (ip), vehicle: saline
[12] = dose: 200.0 mg/kg/injection, schedule: Q01DX009 (ip), vehicle: saline
[13] = dose: 50.0 mg/kg/injection, schedule: Q01DX005 (ip), vehicle: Klucel (hydroxypropylcellulose) (HPC)
[14] = dose: 100.0 mg/kg/injection, schedule: Q01DX005 (ip), vehicle: Klucel (hydroxypropylcellulose) (HPC)
[15] = dose: 200.0 mg/kg/injection, schedule: Q01DX005 (ip), vehicle: Klucel (hydroxypropylcellulose) (HPC)
[16] = dose: 50.0 mg/kg/injection, schedule: Q01DX009 (ip), vehicle: saline with Tween-80
[17] = dose: 100.0 mg/kg/injection, schedule: Q01DX009 (ip), vehicle: saline with Tween-80

## CCC(c1ccc(OC)cc1)C(NCC(=O)N/N=C1\C[C@@H]2[C@H](CC[C@]3(C)[C@@H](O)CC[C@@H]23)c2ccc(O)cc21)c1ccc(OC)cc1 (stereo not given in full)
dose: 100.0 mg/kg/injection, schedule: Q01DX001 (ip), vehicle: saline with Tween-80
  T/C: 100 % of control
dose: 200.0 mg/kg/injection, schedule: Q01DX001 (ip), vehicle: saline with Tween-80
  T/C: 99 % of control
dose: 400.0 mg/kg/injection, schedule: Q01DX001 (ip), vehicle: saline with Tween-80
  T/C: 99 % of control

## O=C(CNC1=NCCN1)Nc1ccc(NC(=O)c2ccc(C(=O)Nc3ccc(NC(=O)CNC4=NCCN4)cc3)cc2)cc1
[1]
  T/C: 118 % of control and 124 % of control
[2]
  T/C: 189 % of control
dose: 400.0 mg/kg/injection, schedule: Q01DX005 (ip), vehicle: saline with Tween-80
  T/C: 96 % of control

## CCC(/C=C/c1ccccc1)=N\NC(=O)c1ccc(Cl)cc1
[3]
  T/C: 101 % of control
[4]
  T/C: 96 % of control
[5]
  T/C: 105 % of control

## Cc1[nH]c(C)c(Cl)c(=O)c1Cl
dose: 6.25 mg/kg/injection, schedule: Q01DX009 (ip), vehicle: Klucel (hydroxypropylcellulose) (HPC)
  T/C: 98 % of control
dose: 12.5 mg/kg/injection, schedule: Q01DX009 (ip), vehicle: Klucel (hydroxypropylcellulose) (HPC)
  T/C: 100 % of control
[6]
  T/C: 115 % of control

## CC(=O)C[n+]1ccccc1Cc1ccccc1
dose: 25.0 mg/kg/injection, schedule: Q01DX005 (ip), vehicle: saline with Tween-80
  T/C: 99 % of control
[1]
  T/C: 100 % of control

## COc1cc2cc(c1Cl)N(C)C(=O)CC(OC(=O)C(C)C)C1(C)OC1C(C)C1CC(O)(NC(=O)O1)C(OC)/C=C/C=C(C)C2 (stereo not given)
dose: 3.1 micrograms/kg/injection, schedule: Q01DX009 (ip), vehicle: saline + alcohol
  T/C: 114 % of control
dose: 6.2 micrograms/kg/injection, schedule: Q01DX009 (ip), vehicle: saline + alcohol
  T/C: 119 % of control
dose: 6.25 micrograms/kg/injection, schedule: Q01DX009 (ip), vehicle: saline + alcohol
  T/C: 115 % of control
dose: 100.0 micrograms/kg/injection, schedule: Q01DX009 (ip), vehicle: saline + alcohol
  T/C: 106 % of control and 86 % of control
dose: 200.0 micrograms/kg/injection, schedule: Q01DX009 (ip), vehicle: saline + alcohol
  T/C: 94 % of control

## O=S(=O)(NN=C(c1ccccc1)c1ccccc1)c1ccccc1
[6]
  T/C: 99 % of control
[7]
  T/C: 93 % of control
[8]
  T/C: 101 % of control
[9]
  T/C: 106 % of control
dose: 400.0 mg/kg/injection, schedule: Q01DX009 (ip), vehicle: Klucel (hydroxypropylcellulose) (HPC)
  T/C: 90 % of control

## [CH3][Sb]([CH3])([CH3])([CH3])[I]
[10]
  T/C: 98 % of control
[11]
  T/C: 100 % of control
[12]
  T/C: 95 % of control

## CC1=CC(=C2C(=O)c3ccccc3C2=O)C=C(C)N1CC#CCN1CCCCC1
[13]
  T/C: 108 % of control
[14]
  T/C: 98 % of control
[15]
  T/C: 88 % of control
dose: 240.0 mg/kg/injection, schedule: Q01DX005 (ip), vehicle: Klucel (hydroxypropylcellulose) (HPC)
  T/C: 90 % of control

## COc1cc(NCCCCCCCNC(C)C)c2nccc(C)c2c1
dose: 3.13 mg/kg/injection, schedule: Q01DX009 (ip), vehicle: saline
  T/C: 105 % of control
dose: 6.25 mg/kg/injection, schedule: Q01DX009 (ip), vehicle: saline
  T/C: 102 % of control
dose: 12.5 mg/kg/injection, schedule: Q01DX009 (ip), vehicle: saline
  T/C: 99 % of control

## Cc1noc(N(C)C)c1C
[10]
  T/C: 102 % of control
[11]
  T/C: 100 % of control
[12]
  T/C: 108 % of control

## CC(C)CC1C(=O)OC(C(C)C)C(=O)N(C)C(CC(C)C)C(=O)OC(C(C)C)C(=O)N(C)C(CC(C)C)C(=O)OC(C(C)C)C(=O)N(C)C(CC(C)C)C(=O)OC(C(C)C)C(=O)N1C (stereo not given)
dose: 1.0 mg/kg/injection, schedule: Q01DX009 (ip), vehicle: saline with Tween-80
  T/C: 99 % of control
dose: 2.0 mg/kg/injection, schedule: Q01DX009 (ip), vehicle: saline with Tween-80
  T/C: 90 % of control
dose: 4.0 mg/kg/injection, schedule: Q01DX009 (ip), vehicle: saline with Tween-80
  T/C: 101 % of control
dose: 8.0 mg/kg/injection, schedule: Q01DX009 (ip), vehicle: saline with Tween-80
  T/C: 101 % of control
dose: 16.0 mg/kg/injection, schedule: Q01DX009 (ip), vehicle: saline with Tween-80
  T/C: 96 % of control

## Cc1ccc(S(=O)(=O)N=N/C=C2/C=CC=CN2O)cc1
[6]
  T/C: 118 % of control and 121 % of control
[7]
  T/C: 119 % of control
[9]
  T/C: 124 % of control

## CNC(=O)c1nn(-c2ccccc2)c2oc(=O)cc(C)c12
[13]
  T/C: 95 % of control
[14]
  T/C: 87 % of control
[15]
  T/C: 87 % of control

## CC(C)(C)C(=O)Oc1ccc([N+](=O)[O-])cc1
dose: 100.0 mg/kg/injection, schedule: Q04DX002 (ip), vehicle: saline with Tween-80
  T/C: 106 % of control
dose: 200.0 mg/kg/injection, schedule: Q04DX002 (ip), vehicle: saline with Tween-80
  T/C: 122 % of control
dose: 400.0 mg/kg/injection, schedule: Q04DX002 (ip), vehicle: saline with Tween-80
  T/C: 102 % of control

## N#CC(C(=O)CCc1nc2ccccc2[nH]1)c1nc2ccccc2s1 (stereo not given)
[3]
  T/C: 102 % of control
[4]
  T/C: 100 % of control
[5]
  T/C: 105 % of control

## C=CC1CN2CCC1CC2C(O)c1ccnc2ccc(OC)cc12 (stereo not given) (tested in a mixture with another compound)
[16]
  T/C: 109 % of control
[17]
  T/C: 109 % of control

## N#Cc1c(NC(=O)CCC(=O)O)ccc2ccccc12
[10]
  T/C: 99 % of control
[11]
  T/C: 114 % of control
[12]
  T/C: 114 % of control

## O=C(Nc1cccc(Cl)c1)N1CCNC1=S
[7]
  T/C: 102 % of control
[8]
  T/C: 104 % of control

## Nc1[nH]c(=O)ncc1-c1cccc(Cl)c1
dose: 15.0 mg/kg/injection, schedule: Q01DX005 (ip), vehicle: saline with Tween-80
  T/C: 103 % of control
dose: 30.0 mg/kg/injection, schedule: Q01DX005 (ip), vehicle: saline with Tween-80
  T/C: 104 % of control
[3]
  T/C: 106 % of control and 96 % of control

## CS(=O)(=O)Nc1ccc(Nc2c3ccccc3nc3cc(N)ccc23)cc1
dose: 1.32 mg/kg/injection, schedule: Q04DX003 (ip), vehicle: saline
  T/C: 154 % of control
dose: 1.78 mg/kg/injection, schedule: Q04DX003 (ip), vehicle: saline
  T/C: 167 % of control
dose: 2.0 mg/kg/injection, schedule: Q04DX003 (ip), vehicle: saline
  T/C: 172 % of control
dose: 2.66 mg/kg/injection, schedule: Q04DX003 (ip), vehicle: saline
  T/C: 158 % of control
dose: 2.9 mg/kg/injection, schedule: Q04DX003 (ip), vehicle: saline
  T/C: 187 % of control
dose: 3.0 mg/kg/injection, schedule: Q04DX003 (ip), vehicle: saline
  T/C: 181 % of control
dose: 4.0 mg/kg/injection, schedule: Q04DX003 (ip), vehicle: saline
  T/C: 155 % of control
dose: 4.4 mg/kg/injection, schedule: Q04DX003 (ip), vehicle: saline
  T/C: 204 % of control
dose: 4.5 mg/kg/injection, schedule: Q04DX003 (ip), vehicle: saline
  T/C: 163 % of control
dose: 6.0 mg/kg/injection, schedule: Q04DX003 (ip), vehicle: saline
  T/C: 192 % of control
dose: 6.6 mg/kg/injection, schedule: Q04DX003 (ip), vehicle: saline
  T/C: 212 % of control
dose: 10.0 mg/kg/injection, schedule: Q04DX003 (ip), vehicle: saline
  T/C: 112 % of control

## Cc1cc2nc(CC(=O)c3ccncc3)c(=O)[nH]c2cc1C
[3]
  T/C: 95 % of control
[4]
  T/C: 87 % of control

## NNC(=O)c1c(O)ccc2ccccc12
[1]
  T/C: 95 % of control
dose: 100.0 mg/kg/injection, schedule: Q01DX005 (ip), vehicle: saline with Tween-80
  T/C: 93 % of control
[2]
  T/C: 100 % of control

## C(=C\c1nc2ccccc2s1)/c1ccc2c(c1)OCO2
[16]
  T/C: 90 % of control
[17]
  T/C: 90 % of control
dose: 200.0 mg/kg/injection, schedule: Q01DX009 (ip), vehicle: saline with Tween-80
  T/C: 100 % of control

## NC(=S)c1ccc(C=NCc2ccccc2)cc1
dose: 100.0 mg/kg/injection, schedule: Q04DX002 (ip), vehicle: Klucel (hydroxypropylcellulose) (HPC)
  T/C: 100 % of control
dose: 200.0 mg/kg/injection, schedule: Q04DX002 (ip), vehicle: Klucel (hydroxypropylcellulose) (HPC)
  T/C: 100 % of control
dose: 400.0 mg/kg/injection, schedule: Q04DX002 (ip), vehicle: Klucel (hydroxypropylcellulose) (HPC)
  T/C: 100 % of control

## CN1CCOP(=O)(c2ccccc2)N1 (stereo not given)
[3]
  T/C: 99 % of control
[4]
  T/C: 100 % of control
[5]
  T/C: 89 % of control
